Measured values: publication PMC9519552, “Activation of the human insulin receptor by non-insulin-related peptides” (Nature Communications, 2022)
Where two headings read alike, the source gives them in different places. Positions of bridges follow the written chain, without caps; N, C: chain ends. Non-standard residues stand in square brackets, D forms with d. Residues, ends and D or L forms follow the SMILES beside them. *: point of attachment. X1 = NCc1ccc(CC(=O)*)cc1; PhAc = O=C(Cc1ccccc1)*; Aib = CC(C)(N)C(=O)O

Columns and labels:
human IR-A (holoIR-A) = molecular target: T1, human IR-A (holoIR-A) (Homo sapiens, UniProt P06213); experiment: holoIR-A competitive radioligand binding assay (scintillation proximity assay); details: for affinity for hIR (in words): comparable to that of BHI; for Ki: primary peptide set, mean of 3 runs, read-out: IRA Binding Ki Mean
T1 construct: expressed in transfected cells; host or cells: HEK293 (ATCC #CRL-1573), stably transfected; membrane preparation
T1 sequence (P06213 28-1370 isoform P06213-2 limits assumed): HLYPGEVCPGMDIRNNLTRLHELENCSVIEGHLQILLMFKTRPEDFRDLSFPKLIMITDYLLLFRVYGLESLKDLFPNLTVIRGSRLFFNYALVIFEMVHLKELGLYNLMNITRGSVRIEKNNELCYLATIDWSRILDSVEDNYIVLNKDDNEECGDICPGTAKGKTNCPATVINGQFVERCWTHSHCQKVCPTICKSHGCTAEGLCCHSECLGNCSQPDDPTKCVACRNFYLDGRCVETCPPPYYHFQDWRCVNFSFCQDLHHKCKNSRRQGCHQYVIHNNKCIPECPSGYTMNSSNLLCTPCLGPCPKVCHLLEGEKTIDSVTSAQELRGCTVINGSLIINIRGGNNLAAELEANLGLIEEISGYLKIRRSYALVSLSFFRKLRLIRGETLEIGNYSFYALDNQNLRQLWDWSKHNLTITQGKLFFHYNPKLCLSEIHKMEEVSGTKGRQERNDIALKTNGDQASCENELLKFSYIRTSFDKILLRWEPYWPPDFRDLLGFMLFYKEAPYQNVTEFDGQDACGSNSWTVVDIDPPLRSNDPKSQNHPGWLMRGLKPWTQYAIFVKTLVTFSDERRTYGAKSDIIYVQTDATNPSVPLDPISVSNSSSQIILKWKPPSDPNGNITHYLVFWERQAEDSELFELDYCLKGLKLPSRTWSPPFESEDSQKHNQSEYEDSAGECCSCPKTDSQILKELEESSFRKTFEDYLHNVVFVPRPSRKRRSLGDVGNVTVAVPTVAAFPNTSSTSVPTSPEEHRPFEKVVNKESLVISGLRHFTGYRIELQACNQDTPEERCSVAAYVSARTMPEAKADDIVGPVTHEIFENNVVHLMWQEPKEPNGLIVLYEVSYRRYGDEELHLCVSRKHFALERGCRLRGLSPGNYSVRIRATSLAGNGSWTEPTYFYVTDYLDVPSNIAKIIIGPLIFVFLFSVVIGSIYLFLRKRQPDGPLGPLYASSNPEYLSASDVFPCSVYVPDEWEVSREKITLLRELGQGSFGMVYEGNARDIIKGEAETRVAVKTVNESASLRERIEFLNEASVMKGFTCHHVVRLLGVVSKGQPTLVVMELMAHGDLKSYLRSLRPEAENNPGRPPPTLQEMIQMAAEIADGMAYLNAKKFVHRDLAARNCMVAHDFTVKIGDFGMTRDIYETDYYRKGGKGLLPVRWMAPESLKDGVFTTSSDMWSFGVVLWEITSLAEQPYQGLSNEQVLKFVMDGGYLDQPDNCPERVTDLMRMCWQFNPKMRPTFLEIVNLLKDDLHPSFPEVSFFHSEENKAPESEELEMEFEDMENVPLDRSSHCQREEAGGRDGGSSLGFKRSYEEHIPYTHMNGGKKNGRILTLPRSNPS
T1 sequence (P06213 763-1382 partner limits assumed): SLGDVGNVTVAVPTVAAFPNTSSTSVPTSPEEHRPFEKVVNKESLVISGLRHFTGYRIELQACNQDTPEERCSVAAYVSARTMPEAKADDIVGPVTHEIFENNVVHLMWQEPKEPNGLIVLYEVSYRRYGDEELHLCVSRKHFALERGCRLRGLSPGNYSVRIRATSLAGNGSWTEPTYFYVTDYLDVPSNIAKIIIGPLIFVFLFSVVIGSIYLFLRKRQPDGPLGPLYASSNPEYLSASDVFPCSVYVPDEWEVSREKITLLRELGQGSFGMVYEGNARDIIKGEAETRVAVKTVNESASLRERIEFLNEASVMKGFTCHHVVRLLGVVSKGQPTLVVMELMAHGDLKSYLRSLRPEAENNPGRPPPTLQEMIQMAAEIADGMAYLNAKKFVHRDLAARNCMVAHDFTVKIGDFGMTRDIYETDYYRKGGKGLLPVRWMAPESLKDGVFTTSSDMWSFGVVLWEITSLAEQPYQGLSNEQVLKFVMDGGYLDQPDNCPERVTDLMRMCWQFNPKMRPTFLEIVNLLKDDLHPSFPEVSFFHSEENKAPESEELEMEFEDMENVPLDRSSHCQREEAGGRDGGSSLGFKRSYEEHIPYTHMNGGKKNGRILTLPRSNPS
How it was run: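 Membranes from HEK293 cells stably expressing C9-tagged human IR-A were used in a WGA-bead SPA competition assay in 50 mM Tris-HCl pH 7.5, 150 mM NaCl, 0.1% fatty-acid-free BSA. Ten-point 3-fold dilutions were incubated 10 h at room temperature before scintillation counting. Percent specific inhibition was calculated after nonspecific-binding correction, from three independent runs.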

[1] = molecular target: T2, human holoIR-A over-expressed in HEK293 cells (Homo sapiens, UniProt P06213); experiment: holoIR-A auto-phosphorylation assay (ELISA); type: cell-based; details: for weaker activity than BHI in an hIR autophosphorylation assay: relative to biosynthetic human insulin
T2 construct: expressed in transfected cells; host or cells: HEK293, stably transfected
T2 sequence (P06213 28-1370 isoform P06213-2 limits assumed): as the sequence (P06213 28-1370 isoform P06213-2 limits assumed) above
T2 sequence (P06213 763-1382 partner limits assumed): as the sequence (P06213 763-1382 partner limits assumed) above
Experimental: Phosphorylation was quantified using an ELISA technique. Ninety-six well, flat-bottom microplates (Greiner Bio-One) were pre-coated with 2 µg mL^−1 anti-C9 monoclonal antibody (Rho 1D4; University of British Columbia)[27] in 20 mM sodium carbonate, pH 9.6, at 4 °C for overnight prior to the assay. On the assay day, plates were washed 3× with 0.1% Tween in 50 mM Tris Buffer Saline, pH 7.5 (TBST), and then blocked for greater than 1 h at room temperature (RT) with 1% BSA (Sigma) in TBST.
Stably transfected HEK293 cells over-expressing human holoIR-A containing a C-terminal C9 epitope tag ([…]), were plated at 6 × 10^4 cells per well serum-starved using 0.1% BSA in DMEM (Gibco) for overnight at standard tissue culture condition. […] After a 15-min incubation in lysis buffer at 4 °C, the lysate was transferred to anti-C9 antibody coated capture plate (Rho 1D4; University of British Columbia)[27]. […] After a 1 h incubation at room temperature, the secondary antibody was removed by washing 3× with TBST. Signal detection occurred with the addition of TMB, an HRP substrate (Pierce). After 5–10 min, the reaction was stopped by adding an equal volume of 2 M H2SO4, and the absorbance readings at 450 nm (A450) were recorded using a Envision plate reader (PerkinElmer). Samples were tested in three independent assay runs on three different days.
Percent specific response (y-axis) was plotted versus the log concentration of compound (x-axis) using Prism Version 9.3.1 (GraphPad Software). Individual measurements are provided as Source Data.

[2] = test system: [holoIR-A]-expressing IM-9 human lymphoblast cells; experiment: holoIR-A accelerated dissociation assay of pre-bound 125I-insulin; type: binding; details: IM-9 cells, 1:40 dilution, 16 °C, 30 min; n = 3
Experimental: Ice-cold 15-25 pM ^125I-insulin solution was added to IM-9 cells and incubated at 4 °C for 2.5 h for pre-bound experiments. […] Following receptor and ^125I-insulin pre-bound, the mix was quickly centrifugated and supernatant was removed. The bound ^125I-insulin and IM-9 cells were then resuspended with 16 °C pre-equilibrated HBB, pH 7.6. The ^125I-ligand/IM-9 cell mixture was aliquoted to cold compounds at 1:40 ratio, respectively. The reactions were incubated at 16 °C for 30 min to allow dissociation of prebound ^125I-insulin and then harvested by centrifugation and aspiration of the supernatant. The radioactivity of cell pellets was determined by gamma counter (Perkin Elmer). Samples were tested in three independent assay runs on three different days. Individual measurements are provided as Source Data.

[3] = molecular target: T2, human holoIR-A over-expressed in HEK293 cells; experiment: Inhibition of hIR phosphorylation by peptides, co-incubated with BHI at its EC50 (ELISA); type: cell-based
How it was run: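 Serum-starved HEK293 cells stably over-expressing C9-tagged human holoIR-A were treated, lysed, and receptor captured on anti-C9-coated plates. Phosphorylation was detected by HRP/TMB ELISA at A450. Percent specific response was plotted against log compound concentration, with three independent runs on different days.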

[4] = primary peptide set, mean of 3 runs, read-out: hIRA Phosph EC50 Mean
[5] = Fig. 1b, HEK293 hIR-A cells, 1 h 37 °C, ELISA, errors given as SEM, n = 3 independent replicates, read-out: Auto-phosphorylation constant EC50

Row | SMILES | affinity for hIR (in words) (human IR-A (holoIR-A)) | Ki (human IR-A (holoIR-A)) [nM] | EC50 [1, 4] [nM] | hIRA Phosph EC50 Run 1 ([1]; primary peptide set) [nM] | hIRA Phosph EC50 Run 2 ([1]; primary peptide set) [nM] | weaker activity than BHI in an hIR autophosphorylation assay [1] [fold] | effect on dissociation of pre-bound I125-insulin tracer from native membrane-expressed hIR (in words) [2] | EC50 [1, 5] [nM] | hIRA Phosph EC50 Run 3 ([1]; primary peptide set) [nM] | weaker affinity for hIR-A than BHI (human IR-A (holoIR-A); relative to biosynthetic human insulin) [fold] | activity in hIR autophosphorylation assay (in words) [1] | hIRA Phosph IC50 Run 1 ([3]; inhibition of insulin-stimulated phosphorylation, BHI at its EC50, run 1) [nM] | hIRA Phosph IC50 Run 2 ([3]; inhibition of insulin-stimulated phosphorylation, BHI at its EC50, run 2) [nM] | hIRA Phosph IC50 Run 3 ([3]; inhibition of insulin-stimulated phosphorylation, BHI at its EC50, run 3) [nM] | IC50 ([3]; read-out: hIRA Phosph IC50 Mean) [nM]
1 | CC[C@H](C)[C@H](NC(=O)[C@H](CCCCN)NC(=O)C(C)(C)NC(=O)[C@H](Cc1c[nH]c2ccccc12)NC(=O)[C@H](CCC(=O)O)NC(=O)[C@H](CCC(N)=O)NC(=O)[C@H](CCC(=O)O)NC(=O)[C@H](CC(C)C)NC(=O)[C@H](CO)NC(=O)Cc1ccc(CN)cc1)C(=O)N[C@@H](CCC(=O)O)C(=O)N[C@H]1CSSC[C@@H](C(=O)N2CCC[C@H]2C(=O)N2CCC[C@H]2C(=O)N[C@@H](CCCCN)C(=O)N[C@@H](CCCCN)C(=O)N[C@@H](C)C(=O)N[C@@H](Cc2ccc(OC)cc2)C(=O)N[C@@H](Cc2ccc(O)cc2)C(=O)N[C@@H](CCCCN)C(=O)N[C@@H](Cc2c[nH]c3ccccc23)C(=O)N[C@@H](Cc2ccccc2)C(=O)N[C@@H](CCC(=O)O)C(=O)N[C@@H](CCCNC(=N)N)C(=O)N[C@@H](CCC(N)=O)C(=O)N[C@@H](CC(C)C)C(=O)N[C@@H](CCCCN)C(N)=O)NC(=O)[C@H](CCCCN)NC(=O)CNC(=O)[C@H](Cc2ccc(O)cc2)NC(=O)[C@H](C(C)C)NC(=O)[C@H](CCC(=O)O)NC1=O [IM459] (X1-SLEQEW[Aib]KIECEVYGKCPPKKAY(Me)YKWFERQLK-NH2; disulfide 11-17) | sub-nM | 0.206 | 7.36 | 6.534 | 8.090 | ~2.5 | decreases dissociation of the pre-bound insulin tracer |  |  |  |  |  |  |  | 
2 | CC[C@H](C)[C@H](NC(=O)[C@H](CCCCN)NC(=O)C(C)(C)NC(=O)[C@H](Cc1c[nH]c2ccccc12)NC(=O)[C@H](CCC(=O)O)NC(=O)[C@H](CCC(N)=O)NC(=O)[C@H](CCC(=O)O)NC(=O)[C@H](CC(C)C)NC(=O)[C@H](CO)NC(=O)Cc1ccc(CN)cc1)C(=O)N[C@@H](CCC(=O)O)C(=O)N[C@H]1CSSC[C@@H](C(=O)N2CCC[C@H]2C(=O)N2CCC[C@H]2C(=O)N[C@@H](CCCCN)C(=O)N[C@@H](CCCCN)C(N)=O)NC(=O)[C@H](CCCCN)NC(=O)CNC(=O)[C@H](Cc2ccc(O)cc2)NC(=O)[C@H](C(C)C)NC(=O)[C@H](CCC(=O)O)NC1=O [IM459N21] (X1-SLEQEW[Aib]KIECEVYGKCPPKK-NH2; disulfide 11-17) |  | 10.6 | > 1000 | >1000 | >1000 |  | effect of IM459 is fully reproduced | > 1000 | >1000 |  |  |  |  |  | 
3 | CC[C@H](C)[C@H](NC(=O)[C@H](CCC(N)=O)NC(=O)[C@H](C)NC(=O)[C@H](Cc1c[nH]c2ccccc12)NC(=O)[C@H](CCC(=O)O)NC(=O)[C@H](CCC(=O)O)NC(=O)[C@H](CCC(=O)O)NC(=O)[C@H](CC(C)C)NC(=O)[C@H](CO)NC(=O)Cc1ccccc1)C(=O)N[C@@H](CCC(=O)O)C(=O)N[C@H]1CSSC[C@@H](C(=O)N2CCC[C@H]2C(=O)N2CCC[C@H]2C(=O)N[C@@H](CO)C(=O)N[C@@H](CCC(=O)O)C(=O)N[C@@H](CO)C(=O)N[C@@H](Cc2ccc(OC)cc2)C(=O)N[C@@H](Cc2ccc(O)cc2)C(=O)N[C@@H](CCCCN)C(=O)N[C@@H](Cc2c[nH]c3ccccc23)C(=O)N[C@@H](Cc2ccccc2)C(=O)N[C@@H](CCC(=O)O)C(=O)N[C@@H](CCCNC(=N)N)C(=O)N[C@@H](CCC(N)=O)C(=O)N[C@@H](CC(C)C)C(N)=O)NC(=O)[C@H](CCCNC(=N)N)NC(=O)CNC(=O)[C@H](Cc2ccc(O)cc2)NC(=O)[C@H](C(C)C)NC(=O)[C@H](CCC(=O)O)NC1=O [IM172] (PhAc-SLEEEWAQIECEVYGRCPPSESY(Me)YKWFERQL-NH2; disulfide 11-17) | sub-nM | 0.255 | 7.06 | 6.352 | 8.068 | ~2.5 | trend similarly, but more weakly |  | 6.757 |  |  |  |  |  | 
4 | CC[C@H](C)[C@H](NC(=O)[C@H](CCC(N)=O)NC(=O)[C@H](C)NC(=O)[C@H](Cc1c[nH]c2ccccc12)NC(=O)[C@H](CCC(=O)O)NC(=O)[C@H](CCC(=O)O)NC(=O)[C@H](CCC(=O)O)NC(=O)[C@H](CC(C)C)NC(=O)[C@H](CO)NC(=O)Cc1ccccc1)C(=O)N[C@@H](CCC(=O)O)C(=O)N[C@H]1CSSC[C@@H](C(=O)N2CCC[C@H]2C(=O)N2CCC[C@H]2C(=O)N[C@@H](CO)C(=O)N[C@@H](CCC(=O)O)C(=O)N[C@@H](CO)C(N)=O)NC(=O)[C@H](CCCNC(=N)N)NC(=O)CNC(=O)[C@H](Cc2ccc(O)cc2)NC(=O)[C@H](C(C)C)NC(=O)[C@H](CCC(=O)O)NC1=O [IM172N22] (PhAc-SLEEEWAQIECEVYGRCPPSES-NH2; disulfide 11-17) |  | 3.08 | > 1000 | >1000 | >1000 |  |  | > 1000 | >1000 | ~10 | devoid of detectable activity | 17 | 17 | 17 | 16.9
5 | COc1ccc(C[C@H](NC(=O)[C@H](C)NC(=O)[C@H](CCCCN)NC(=O)[C@H](CCCCN)NC(=O)[C@@H]2CCCN2C(C)=O)C(=O)N[C@@H](Cc2ccc(O)cc2)C(=O)N[C@@H](CCCCN)C(=O)N[C@@H](Cc2c[nH]c3ccccc23)C(=O)N[C@@H](Cc2ccccc2)C(=O)N[C@@H](CCC(=O)O)C(=O)N[C@@H](CCCNC(=N)N)C(=O)N[C@@H](CCC(N)=O)C(=O)N[C@@H](CC(C)C)C(=O)N[C@@H](CCCCN)C(N)=O)cc1 [IM459C14] (Ac-PKKAY(Me)YKWFERQLK-NH2) |  | 215 | > 1000 | >1000 | >1000 |  | no effect | > 1000 | >1000 |  |  |  |  |  | 
